Key:
OVCAR-3 cells = assay: Inhibition of OVCAR-3 cell proliferation (CellTiter-Glo cell viability); type: cell-based; details: Homo sapiens; OVCAR-3 cells (TP53 R248Q mutation), 72 hours culture with compound; read-out: IC50
Experimental: (§1) Influences of the compounds of the present invention on OVCAR-3 cell proliferation were determined by the following method. OVCAR-3 cells (containing TP53 R248Q mutation) were purchased from the Cell Bank of Shanghai Institute of Biochemistry and Cell Biology, Chinese Academy of Sciences, and cultured in an RPMI 1640 culture medium containing 10% fetal bovine serum, 100 U penicillin and 100 µg/mL streptomycin. A cell viability was determined by a CellTiter-Glo® Luminescent Cell Viability Assay kit (Promega, article number G7573).
(§2) An experimental method was operated according to steps in the instruction of the kit, which was briefly described as follows: a test compound was dissolved in DMSO first to prepare a 10 mM stock solution, then the stock solution was diluted with the culture medium to prepare a test sample, and a final concentration of the compound was in a range of 1000 nM-0.015 nM. Cells in a logarithmic growth phase were inoculated into a 96-well cell culture plate at a density of 1000 cells per well, cultured in a 5% CO2 incubator at 37°C overnight, and then the test compound was added to continuously culture for 72 hours. After the culture was ended, 50 uL of CellTiter-Glo detection solution was added to each well , shaken for 5 minutes, and then allowed to stand for 10 minutes, and subsequently, a luminance value of each well of the sample was read by a microplate reader in a Luminescence mode. By comparing with the numerical value of a control group (0.3% DMSO), a percentage inhibition rate of the compound at each concentration point was calculated, and then nonlinear regression analysis was carried out based on concentration logarithm-inhibition rate of the compound in GraphPad Prism 5 software, so as to obtain an IC50 value of the compound for inhibiting the cell proliferation, which was as shown in Table 1. Table 1 IC50 data of the compounds of the present invention for inhibiting OVCAR-3 cell proliferation

HT-29 cells = assay: Inhibition of HT-29 cell proliferation (CellTiter-Glo cell viability); type: cell-based; details: Homo sapiens; HT-29 cells (TP53 R273H mutation), 120 hours culture with compound; read-out: IC50
Experimental: as §1, with “HT-29” for “OVCAR-3”, “R273H” for “R248Q”, “a McCOY's 5A” for “an RPMI 1640”
as §2, with “for 120” for “for 72”, “each well,” for “each well ,”, “Table 2.” for “Table 1.”, “Table 2” for “Table 1”, “inhibiting HT-29” for “inhibiting OVCAR-3”

SMILES	IC50 (OVCAR-3 cells) [nM]	IC50 (HT-29 cells) [nM]
CCS(=O)(=O)Nc1ccc(C(=O)Nc2ccc(C(N)=O)c(N3CCC(F)(F)CC3)c2)c(N2CCC3(CC2)CC3)c1 [Example 1, N-(4-carbamoyl-3-(4,4-difluor opiperidin-1-yl)phenyl)-4-(ethylsulfonamido)-2-(6-azaspiro[2.5]octan-6-yl)benzamide]	16.5	10.2
CCS(=O)(=O)Nc1ccc(C(=O)Nc2ccc(C(=O)NC)c(N3CCC(F)(F)CC3)c2)c(N2CCC3(CC2)CC3)c1 [Example 3, 2-(4,4-difluoropiperidin-1-yl)-4-(4-(ethylsulfonamido)-2-(6-azaspiro[2.5]octan-6-yl)benzamido)-N-methylbenzamide]	3.7	4
CCS(=O)(=O)Nc1ccc(C(=O)Nc2ccc(CO)c(N3CCC(F)(F)CC3)c2)c(N2CCC3(CC2)CC3)c1 [Example 6, N-(3-(4,4-difluoropiperidin-1-yl)-4-(hydroxymethyl)phenyl)-4-(ethylsulfonamido)-2-(6-azaspiro[2.5]octan-6-yl)benzamide]	11.1	13.3
CCS(=O)(=O)Nc1ccc(C(=O)Nc2ccc(-c3cnccn3)c(N3CCC(F)(F)CC3)c2)c(N2CCC3(CC2)CC3)c1 [Example 11, N-(3-(4,4-difluoropiperidin-1-yl)-4-(pyrazin-2-yl)phenyl)-4-(ethylsulfonamido)-2-(6-azaspiro[2.5]octan-6-yl)benzamide]	17.7	16.3
CCS(=O)(=O)Nc1ccc(C(=O)Nc2ccc(-n3ccnc3)c(C3=CCC(F)(F)CC3)c2)c(N2CCC3(CC2)CC3)c1 [Example 22, N-(4',4'-difluoro-6-(1H-imidazol-1-yl)-2',3',4',5'-tetrahydro-[1,1'-biphenyl]-3-yl)-4-(ethylsulfonamido)-2-(6-azaspiro[2. 5]octan-6-yl)benzamide]	19.9	16.8
CCS(=O)(=O)Nc1ccc(C(=O)Nc2ccc(-c3ncco3)c(OC3CC(F)(F)C3)c2)c(N2CCC3(CC2)CC3)c1 [Example 23, N-(3-(3,3-difluorocyclobutoxy)-4-(oxazol-2-yl)phenyl)-4-(ethylsulfonamido)-2-(6-azaspiro [2.5]octan-6-yl)benzamide]	51.3	–
CCS(=O)(=O)Nc1ccc(C(=O)Nc2ccc(-n3ccnc3)c(OC3CC(F)(F)C3)c2)c(N2CCC3(CC2)CC3)c1 [Example 24, N-(3-(3,3-difluorocyclobutoxy)-4-(1H-imidazol-1-yl)phenyl) -4-(ethylsulfonamido)-2-(6-azaspiro[2.5]octan-6-yl)benzamide]	17.6	–
CCS(=O)(=O)Nc1ccc(C(=O)Nc2ccc(-c3ncnn3C)c(N3CCC(F)(F)CC3)c2)c(N2CCC3(CC2)CC3)c1 [Example 38, N-(3-(4,4-difluoropiperidin-1-yl)-4-(1-methyl-1H-1,2,4-triazol-5-yl)phenyl)-4-(ethylsulfon amido)-2-(6-azaspiro[2.5]octan-6-yl)benzamide]	27.1	–
CCS(=O)(=O)Nc1ccc(C(=O)Nc2ccc(-c3nnco3)c(N3CCC(F)(F)CC3)c2)c(N2CCC3(CC2)CC3)c1 [Example 40, N-(3-(4,4-difluoropiperidin-1-yl)-4-(1,3,4-oxadiazol-2-yl)phenyl)-4-(ethylsulfonamido)-2-(6-azaspiro[2.5]octan-6-yl)benz amide]	6	8.2
CCS(=O)(=O)Nc1ccc(C(=O)Nc2ccc(-c3ncn(C)n3)c(NC3CC(F)(F)C3)c2)c(N2CCC3(CC2)CC3)c1 [Example 54, N-(3-((3,3-difluorocyclobutyl)amino)-4-(1-methyl-1H-1,2,4-triazol-3-yl)phenyl)-4-(ethylsulfonamido)-2-(6-azaspiro[2.5]octan-6-yl)benzamide]	38.9	–
CCS(=O)(=O)Nc1ccc(C(=O)Nc2ccc(Oc3ccccn3)c(N3CCC(F)(F)CC3)c2)c(N2CCC3(CC2)CC3)c1 [Example 55, N-(3-(4,4-difluoropiperidin-1-yl)-4-(pyridin-2-yloxy)phenyl) -4-(ethylsulfonamido)-2-(6-azaspiro[2.5]octan-6-yl)benzamide]	44.7	–

The remaining lines, values ahead:

IC50 (OVCAR-3 cells) [nM]	IC50 (HT-29 cells) [nM]	SMILES
18.9	–	CCS(=O)(=O)Nc1ccc(C(=O)Nc2ccc(C(=O)N(C)C)c(N3CCC(F)(F)CC3)c2)c(N2CCC3(CC2)CC3)c1 [Example 4, 2-(4,4-difluoropiperidin-1-yl)-4-(4-(ethylsulfonamido)-2-(6-azaspiro[2.5]octan-6-yl)benzamido)-N,N-dimethylbenzamide]
33.1	–	CCS(=O)(=O)Nc1ccc(C(=O)Nc2ccc(C(C)=O)c(N3CCC(F)(F)CC3)c2)c(N2CCC3(CC2)CC3)c1 [Example 5, N-(4-acetyl-3-(4,4-difluoropiperidin-1-yl)phenyl)-4-(ethylsulfonamido)-2-(6-azaspiro[2.5]octan-6-yl)benzamide]
11.1	18.3	CCS(=O)(=O)Nc1ccc(C(=O)Nc2ccc(-c3ncco3)c(N3CCC(F)(F)CC3)c2)c(N2CCC3(CC2)CC3)c1 [Example 7, N-(3-(4,4-difluoropiperidin-1-yl)-4-(oxazol-2-yl)phenyl)-4-(ethylsulfonamido)-2-(6-azaspiro[2.5]octan-6-yl)benzamide]
21.2	–	CCS(=O)(=O)Nc1ccc(C(=O)Nc2ccc(-c3ccncc3)c(N3CCC(F)(F)CC3)c2)c(N2CCC3(CC2)CC3)c1 [Example 8, N-(3-(4,4-difluoropiperidin-1-yl)-4-(pyridin-4-yl)phenyl)-4-(ethylsulfonamido)-2-(6-azaspiro[2.5]octan-6-yl)benzamide]
15.2	14.5	CCS(=O)(=O)Nc1ccc(C(=O)Nc2ccc(-c3cccnc3)c(N3CCC(F)(F)CC3)c2)c(N2CCC3(CC2)CC3)c1 [Example 9, N-(3-(4,4-difluoropiperidin-1-yl)-4-(pyridin-3-yl)phenyl)-4-(ethylsulfonamido)-2-(6-azaspiro[2.5]octan-6-yl)benzamide]
17.3	27.1	CCS(=O)(=O)Nc1ccc(C(=O)Nc2ccc(-c3ccccn3)c(N3CCC(F)(F)CC3)c2)c(N2CCC3(CC2)CC3)c1 [Example 10, N-(3-(4,4-difluoropiperidin-1-yl)-4-(pyridin-2-yl)phenyl)-4-(ethylsulfonamido)-2-(6-azaspiro[2.5]octan-6-yl)benzamide]
5.9	4.7	O=C(Nc1ccc(-n2ccnn2)c(N2CCC(F)(F)CC2)c1)c1ccc(NS(=O)(=O)C2CC2)cc1N1CCC2(CC1)CC2 [Example 32, 4-(cyclopropanesulfonamido)-N-(3-(4,4-difluoropiperidin-1-yl)-4-(1H-1,2,3-triazol-1-yl)phenyl)-2-(6-azaspiro[2.5]octan-6-yl)benzamide]
11.1	6.2	CCS(=O)(=O)Nc1ccc(C(=O)Nc2ccc(-c3nnn(C)n3)c(N3CCC(F)(F)CC3)c2)c(N2CCC3(CC2)CC3)c1 [Example 35, N-(3-(4,4-difluoropiperidin-1-yl)-4-(2-methyl-2H-tetrazol-5-yl)phenyl)-4-(ethylsulfonamido)-2-(6-azaspiro[2.5]octan-6-y 1)benzamide]
11.1	9.3	CCS(=O)(=O)Nc1ccc(C(=O)Nc2ccc(-c3ccon3)c(N3CCC(F)(F)CC3)c2)c(N2CCC3(CC2)CC3)c1 [Example 36, N-(3-(4,4-difluoropiperidin-1-yl)-4-(isoxazol-3-yl)phenyl)-4-(ethylsulfonamido)-2-(6-azaspiro[2.5]octan-6-yl)benzamide]
